Assay [1] deals with neuraminidase of A/California/07/2009, H1N1 Pandemic, WT (Influenza A virus (A/California/07/2009(H1N1)), UniProt C7FH46). It counts as biochemical, 2009 pandemic H1N1 influenza virus. The settings on record: read-out: Mean IC50 ± SD.
Assay [2] has as its target neuraminidase of A/Washington/01/2007, A (H3N2) Seasonal, WT (Influenza A virus, UniProt A7UPN3). Put plainly: biochemical.
Assay [3] concerns the target neuraminidase of A/England/412/2008 (H1N1), H275H/Y mix. It counts as biochemical, influenza A(H1N1) virus.
Assay [4] concerns the target neuraminidase of seasonal influenza B virus isolates (Influenza B virus, UniProt U5XBU0). Format: biochemical.
The target of assay [5] is neuraminidase of A/Washington/10/2008, A (H1N1) Seasonal, WT (Influenza A virus, UniProt G3LYQ1). Format: biochemical. The settings on record: read-out: Mean IC50 ± SD.
For assay [6], the target named is neuraminidase of seasonal influenza A(H1N1) H275 wildtype virus isolates (Influenza A virus, UniProt A8C8J7). Format: biochemical.
Assay [7] has as its target neuraminidase of Pandemic H1N1 virus isolates (Influenza A virus, UniProt C7FH46). Format: biochemical, 2009 pandemic H1N1 influenza virus.
For assay [8], the target named is neuraminidase of seasonal influenza A(H3N2) virus isolates (Influenza A virus, UniProt X2GK54). Format: biochemical.
Assay [9] addresses neuraminidase of 2009 pandemic H1N1 H275 wildtype virus isolates (Influenza A virus, UniProt C3W5S3). It counts as biochemical, 2009 pandemic H1N1 influenza virus.
In assay [10] the target is neuraminidase of B/Memphis/20/1996, B Seasonal, WT (Influenza B virus, UniProt C7FPS7). It counts as biochemical. Particulars: read-out: Mean IC50 ± SD.
Assay [11] has as its system neuraminidase of B/Okinawa/10/2009. Format: biochemical, influenza B virus.
The test system of assay [12] is neuraminidase of seasonal influenza A(H1N1) viruses. It counts as biochemical, influenza A(H1N1) virus.
For assay [13], the system named is neuraminidase of B/New Jersey/02/2009. It counts as biochemical, influenza B virus.
Where [14] appears, read: read-out: IC50 Statistical Cutoff (X0.75 + 3IQR).
The mark [15] stands for this setting: read-out: IC50 X0.75 (75th Percentile).

Like-named read-outs stand apart in the source and are kept apart here.

Turning to `CCC(CC)[C@H](NC(C)=O)[C@@H]1[C@H](O)[C@@H](C(=O)O)C[C@H]1N=C(N)N` [Peramivir, peramivir], the IC50 in [1] was 0.06 nM; in assay [2] (read-out: Mean IC50 ± SD) it was 0.12 nM; in [3] it was 0.51 nM; in [4] (read-out: IC50 Mean (±SD)) it was 0.56 nM; in assay [4] (read-out: IC50 Median), 0.56 nM; in assay [4] (read-out: IC50 Range), 0.24 to 1.1 nM. In addition, the IC50 in assay [4] (setting [14]) was 1.37 nM; in assay [4] (setting [15]), 0.68 nM; in assay [5], 0.09 nM; in assay [6] (read-out: IC50 Mean (±SD)), 0.1 nM; in [6] (read-out: IC50 Median), 0.1 nM; in assay [6] (read-out: IC50 Range), 0.05 to 0.17 nM. The IC50 in [6] (setting [14]) is 0.28 nM; in [6] (setting [15]), 0.13 nM; in [8] (read-out: IC50 Mean (±SD)) it was 0.17 ± 0.1 nM; in [8] (read-out: IC50 Median) it was 0.14 nM; in [8] (read-out: IC50 Range) it was 0.05 to 0.94 nM; in [8] (setting [14]) it was 0.4 nM. Further, the IC50 in [8] (setting [15]) is 0.19 nM; in assay [9] (read-out: IC50 Mean (±SD)) it was 0.08 ± 0.04 nM; in assay [9] (read-out: IC50 Median), 0.07 nM; in [9] (read-out: IC50 Range), 0.03 to 0.35 nM; in assay [9] (setting [14]), 0.22 nM; in assay [9] (setting [15]) it was 0.1 nM. In addition, the IC50 in [10] came out at 0.31 nM. Besides, the “susceptibility in NI assay” value in assay [4] and in assay [7] was “sensitive” throughout.

Turning to `CC(=O)N[C@H]1[C@H]([C@H](O)[C@H](O)CO)OC(C(=O)O)=C[C@@H]1N=C(N)N` [Zanamivir, zanamivir], the “susceptibility in NI assay” value in [11] is “reduced susceptibility”; in assay [12] it was “sensitive”; in [13], “reduced susceptibility”; in [7], “sensitive”; in assay [8] it was “sensitive”. In addition, the results for the IC50 in assay [1] and in assay [2] were 0.26 nM and 0.47 nM, respectively.

In general, IC50 refers to the concentration needed to halve the response being measured.

Values taken from paper PMC3185571 (Viruses, 2010).
